Experimental data taken from the CheMixHub viscosity set.
Several values for one entry are separate records, joined by “and”; a condition that tells them apart may be missing. Identical values can stand only once. ± gives the uncertainty stated by the source.

How the values were obtained:
[1] = xn = mol fraction of the nth substance listed; conditions: 101 kPa

CCCNCCC
viscosity (298.15 K, 100 kPa): 0.504 ± 0.1 mPa·s and 0.5042 ± 0.15 mPa·s (2×)
viscosity (298.15 K, 101.33 kPa): 0.503 ± 0.005 mPa·s
viscosity (303.15 K, 100 kPa): 0.471 ± 0.1 mPa·s and 0.4706 ± 0.15 mPa·s (2×)
viscosity (308.15 K, 100 kPa): 0.444 ± 0.1 mPa·s and 0.4444 ± 0.15 mPa·s (2×)
viscosity (308.15 K, 101.33 kPa): 0.444 ± 0.005 mPa·s
viscosity (318.15 K, 101.33 kPa): 0.386 ± 0.004 mPa·s

CCNC(C)=O
viscosity (298.16 K, 101 kPa): 5.89 ± 0.05 mPa·s

CCOC(=O)[C@@H](O)[C@H](O)C(=O)OCC
viscosity (293.15 K, 101 kPa): 221.3 ± 4.6 mPa·s
viscosity (298.15 K, 101 kPa): 137.7 ± 2 mPa·s and 137.7 ± 2.1 mPa·s
viscosity (303.15 K, 101 kPa): 90.07 ± 0.93 mPa·s and 90.07 ± 1 mPa·s
viscosity (308.15 K, 101 kPa): 61.58 ± 0.47 mPa·s and 61.58 ± 0.56 mPa·s
viscosity (313.15 K, 101 kPa): 43.68 ± 0.34 mPa·s and 43.68 ± 0.4 mPa·s
viscosity (318.15 K, 101 kPa): 32.1 ± 0.25 mPa·s and 32.1 ± 0.29 mPa·s
viscosity (323.15 K, 101 kPa): 24.37 ± 0.19 mPa·s and 24.37 ± 0.22 mPa·s

CCOC(=O)c1ccccc1
viscosity (293.15 K, 101.33 kPa): 2.013 ± 0.052 mPa·s and 2.21 ± 0.02 mPa·s
viscosity (298.15 K, 101.33 kPa): 1.954 ± 0.025 mPa·s and 1.936 ± 0.023 mPa·s
viscosity (303.15 K, 101.33 kPa): 1.597 ± 0.041 mPa·s and 1.77 ± 0.022 mPa·s and 1.811 ± 0.016 mPa·s
viscosity (308 K, 101.3 kPa): 1.593 ± 0.16 mPa·s
viscosity (308.15 K, 101.33 kPa): 1.61 ± 0.021 mPa·s and 1.591 ± 0.019 mPa·s
viscosity (313 K, 101.3 kPa): 1.446 ± 0.14 mPa·s
viscosity (313.15 K, 101 kPa): 1.446 ± 0.035 mPa·s and 1.463 ± 0.031 mPa·s and 1.461 ± 0.022 mPa·s
viscosity (313.15 K, 101.33 kPa): 1.284 ± 0.033 mPa·s and 1.453 ± 0.018 mPa·s
viscosity (318 K, 101.3 kPa): 1.339 ± 0.13 mPa·s
viscosity (318.15 K, 101 kPa): 1.339 ± 0.033 mPa·s and 1.35 ± 0.042 mPa·s
viscosity (318.15 K, 101.33 kPa): 1.332 ± 0.016 mPa·s
viscosity (323 K, 101.3 kPa): 1.254 ± 0.13 mPa·s
viscosity (323.15 K, 101 kPa): 1.254 ± 0.031 mPa·s
viscosity (323.15 K, 101.33 kPa): 1.058 ± 0.027 mPa·s

CCS(=O)CC
viscosity (298.15 K, 101 kPa): 2.32 ± 0.05 mPa·s
viscosity (303.15 K, 101 kPa): 2.1 ± 0.04 mPa·s
viscosity (308.15 K, 101 kPa): 1.88 ± 0.04 mPa·s
viscosity (313.15 K, 101 kPa): 1.74 ± 0.04 mPa·s
viscosity (318.15 K, 101 kPa): 1.59 ± 0.03 mPa·s
viscosity (323.15 K, 101 kPa): 1.31 ± 0.03 mPa·s

CCn1cc[n+](C)c1.N#C[S-]
viscosity (293.15 K, 101 kPa): 26.31 ± 0.54 mPa·s
viscosity (298.15 K, 100 kPa): 23.06 ± 1.1 mPa·s
viscosity (303.15 K, 100 kPa): 19.68 ± 0.93 mPa·s
viscosity (303.15 K, 101 kPa): 19.03 ± 0.49 mPa·s
viscosity (308.15 K, 100 kPa): 16.97 ± 0.8 mPa·s
viscosity (313.15 K, 100 kPa): 14.54 ± 0.69 mPa·s (2×) and 16.97 ± 0.8 mPa·s
viscosity (313.15 K, 101 kPa): 14.3 ± 0.46 mPa·s
viscosity (318.15 K, 100 kPa): 12.98 ± 0.61 mPa·s (2×) and 14.54 ± 0.69 mPa·s
viscosity (323.15 K, 100 kPa): 11.49 ± 0.54 mPa·s
viscosity (323.15 K, 101 kPa): 11.1 ± 0.45 mPa·s

CNS(C)(=O)=O
viscosity (303.15 K, 101.33 kPa): 8.242 ± 0.21 mPa·s

COC(=O)c1ccccc1O
viscosity (303.15 K, 101 kPa): 2.44 ± 0.028 mPa·s

Cc1cccc([N+](=O)[O-])c1
viscosity (308.15 K, 101.33 kPa): 1.692 ± 0.01 mPa·s

Cc1ccccc1[N+](=O)[O-]
viscosity (298.15 K, 101 kPa): 2.1 ± 0.021 mPa·s
viscosity (298.15 K, 101.33 kPa): 2.089 ± 0.021 mPa·s
viscosity (308.15 K, 101.33 kPa): 1.727 ± 0.011 mPa·s
viscosity (323.15 K, 101.33 kPa): 1.348 ± 0.013 mPa·s

N#CCc1ccccc1
viscosity (298.15 K, 101 kPa): 1.868 ± 0.045 mPa·s

OC1CCCCCCC1
viscosity (293.15 K, 100 kPa): 210 ± 10 mPa·s
viscosity (298.15 K, 100 kPa): 143 ± 5.6 mPa·s
viscosity (303.15 K, 100 kPa): 102.5 ± 3.8 mPa·s
viscosity (308.15 K, 100 kPa): 72 ± 3.2 mPa·s
viscosity (313.15 K, 100 kPa): 55 ± 3.1 mPa·s
viscosity (318.15 K, 100 kPa): 40 ± 3.1 mPa·s

OCC(F)(F)C(F)F
viscosity (298.15 K, 100 kPa): 4.861 ± 0.1 mPa·s
viscosity (323.15 K, 100 kPa): 2.156 ± 0.046 mPa·s

c1cscn1
viscosity (298.15 K, 101 kPa): 1.008 ± 0.027 mPa·s

CCC(C)CO (stereo not drawn) + O
viscosity ([1]; 298.15 K, x2 = 0.0025): 4.797 ± 0.044 mPa·s
viscosity ([1]; 298.15 K, x2 = 0.0548): 4.447 ± 0.044 mPa·s
viscosity ([1]; 298.15 K, x2 = 0.0985): 4.284 ± 0.044 mPa·s
viscosity ([1]; 298.15 K, x2 = 0.1421): 4.163 ± 0.046 mPa·s
viscosity ([1]; 298.15 K, x2 = 0.1741): 4.101 ± 0.047 mPa·s
viscosity ([1]; 298.15 K, x2 = 0.1943): 4.07 ± 0.048 mPa·s
viscosity ([1]; 298.15 K, x2 = 0.2403): 4.025 ± 0.05 mPa·s
viscosity ([1]; 298.15 K, x2 = 0.2657): 4.011 ± 0.052 mPa·s
viscosity ([1]; 298.15 K, x2 = 0.2859): 4.01 ± 0.053 mPa·s
viscosity ([1]; 298.15 K, x2 = 0.2923): 4.005 ± 0.053 mPa·s
viscosity ([1]; 298.15 K, x2 = 0.3149): 4.005 ± 0.055 mPa·s

CCCC[N+]1(C)CCCC1.N#C[S-] + O
viscosity ([1]; 298.15 K, x1 = 0.9147): 91.83 ± 15 mPa·s

CCNC(C)=O + O
viscosity ([1]; 298.16 K, x2 = 0.0826): 6.11 ± 0.05 mPa·s
viscosity ([1]; 298.16 K, x2 = 0.1593): 6.33 ± 0.05 mPa·s
viscosity ([1]; 298.16 K, x2 = 0.2575): 6.67 ± 0.05 mPa·s
viscosity ([1]; 298.16 K, x2 = 0.3475): 6.96 ± 0.05 mPa·s
viscosity ([1]; 298.16 K, x2 = 0.427): 7.14 ± 0.05 mPa·s
viscosity ([1]; 298.16 K, x2 = 0.4728): 7.18 ± 0.05 mPa·s
viscosity ([1]; 298.16 K, x2 = 0.5438): 7.12 ± 0.05 mPa·s
viscosity ([1]; 298.16 K, x2 = 0.585): 6.98 ± 0.05 mPa·s
viscosity ([1]; 298.16 K, x2 = 0.7047): 6.14 ± 0.05 mPa·s
viscosity ([1]; 298.16 K, x2 = 0.7459): 5.72 ± 0.05 mPa·s
